Measured values: PubChem BioAssay (NCI)
Where “and” joins values, the source holds several entries; their conditions need not be identical. Equal values may be shown once.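 Exposure lasted 48 hours, with cells grown in 96-well plates and compounds tested at five concentrations. GI50 = concentration required for 50% inhibition of growth. The concentration for full growth arrest is given as TGI.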

system: HOP-92 NSCLC; assay: growth of human tumour cells (NCI), 48 h

Row | SMILES | GI50 | TGI
1 | Cn1cc(CO)c2c1C(=O)C=C(N1CC1)C2=O | 0.898 µM | 4 µM
2 | CCN(CC)CCCC(CNc1ccnc2cc(Cl)ccc12)c1ccc(Cl)cc1 (centres undefined) | 1.44 µM and 1.16 µM | 3.12 µM and 2.78 µM
3 | [Cl][Hg][c]1cc(Br)cc(Br)c1 | 1.7 µM | 3.45 µM
4 | COc1ccc(C(C)=O)cc1N1C(=O)C2C(C1=O)C1(c3ccccc3)C(=O)C2(c2ccccc2)C(c2ccc(C)cc2)=C1c1ccc(C)cc1 (centres undefined) | 21.7 µM | > 100 µM
5 | O=C1c2cccc(NCCCNCCO)c2C(=O)c2cccc(NCCCNCCO)c21 |  | 4.08 µM
6 | CCN(CC)c1ccc2c(c1)OC(N)=C(C#N)C2c1cc(OC)c2c(c1)OCO2 (centres undefined) | 0.107 µM | 3.58 µM
7 | N#CC(=C1C=CC(=NO)C=C1)c1ccccc1 | 2.49 µM | 9.46 µM
8 | CCCCCCCCCCCCCC1=NC(C)(C)CN1C(C)C | 0.655 µM | 2.19 µM
9 | CC(C)=CCNc1ncnc2c1ncn2C1OC(CO)C(O)C1O (centres undefined) | 1.14 µM | 3.99 µM
10 | COc1ccc(CN2C(=O)/C(=C\C(=O)c3ccc(OCCN4CCCCC4)cc3)c3ccccc32)cc1 | 1.64 µM | 3.89 µM

system: HS 578T breast; assay: growth of human tumour cells (NCI), 48 h

Row | SMILES | GI50 | TGI
11 | OC[C@H]1C[C@](O)(c2ccc(Cl)cc2)[C@@H](c2ccc(Cl)cc2)O1 | 18 µM | 45.6 µM
12 | C=COCCCOc1ccccc1 | > 100 µM | > 100 µM
13 | C=C(c1nc2ccc(Cl)cc2[nH]c1=O)C(O)c1ccc(C(O)C(=O)c2nc3ccc(Cl)cc3[nH]c2=O)cc1 (centres undefined) |  | > 100 µM
14 | O=c1c2sc(=S)n(-c3ccc(F)cc3)c2ncn1Cc1ccc(F)cc1F | 78.8 µM | > 100 µM
15 | C=CCCCCC/C=C\[C@H](O)C#CC#C/C=C/CO | 45.4 µM | > 100 µM
16 | COc1cc(C#CC(=O)OC/C=C/c2ccc3c(c2)OCO3)cc(OC)c1OC |  | 51 µM
17 | O/N=C/C1C(OCc2ccccc2)C(OCc2ccccc2)C(OCc2ccccc2)CN1Cc1ccccc1 (centres undefined) | 21.5 µM and 3.75 µM | 96.6 µM and 88.5 µM
18 | O=C1NC(=O)C(c2cnc3ccccn23)=C1c1cn2c3c(cc(F)cc13)CN(C(=O)N1CCCCC1)CC2 | 0.0115 µM | 60.9 µM
19 | Clc1nc2ccccc2nc1CI | 12.7 µM | 77.6 µM
20 | Cn1nc(N)c2cc([C@@H]3Nc4ccc5[nH]ncc5c4[C@H]4C5CCC(C5)[C@@H]34)ccc21 (some centres undefined) | 0.373 µM | 43.4 µM
21 | Cn1cc(CO)c2c1C(=O)C=C(N1CC1)C2=O | 0.017 µM | 0.0472 µM
22 | CCN(CC)CCCC(CNc1ccnc2cc(Cl)ccc12)c1ccc(Cl)cc1 (centres undefined) | 1.76 µM and 1.97 µM | 3.82 µM and 4.46 µM
23 | [Cl][Hg][c]1cc(Br)cc(Br)c1 | 1.58 µM | 7.07 µM
24 | COc1ccc(C(C)=O)cc1N1C(=O)C2C(C1=O)C1(c3ccccc3)C(=O)C2(c2ccccc2)C(c2ccc(C)cc2)=C1c1ccc(C)cc1 (centres undefined) | > 100 µM | > 100 µM
25 | O=C1c2cccc(NCCCNCCO)c2C(=O)c2cccc(NCCCNCCO)c21 |  | 2.65 µM
26 | CCN(CC)c1ccc2c(c1)OC(N)=C(C#N)C2c1cc(OC)c2c(c1)OCO2 (centres undefined) | 0.0167 µM | 0.409 µM
27 | N#CC(=C1C=CC(=NO)C=C1)c1ccccc1 | 2.39 µM | 6.68 µM
28 | CCCCCCCCCCCCCC1=NC(C)(C)CN1C(C)C | 1.79 µM | 3.86 µM
29 | CC(C)=CCNc1ncnc2c1ncn2C1OC(CO)C(O)C1O (centres undefined) | 0.684 µM | 4.33 µM
30 | COc1ccc(CN2C(=O)/C(=C\C(=O)c3ccc(OCCN4CCCCC4)cc3)c3ccccc32)cc1 | 3.79 µM | 25.5 µM

system: TK-10 renal; assay: growth of human tumour cells (NCI), 48 h

Row | SMILES | GI50 | TGI
31 | OC[C@H]1C[C@](O)(c2ccc(Cl)cc2)[C@@H](c2ccc(Cl)cc2)O1 | 30.5 µM | 84.3 µM
32 | C=COCCCOc1ccccc1 |  | > 100 µM
33 | C=C(c1nc2ccc(Cl)cc2[nH]c1=O)C(O)c1ccc(C(O)C(=O)c2nc3ccc(Cl)cc3[nH]c2=O)cc1 (centres undefined) |  | > 100 µM
34 | O=c1c2sc(=S)n(-c3ccc(F)cc3)c2ncn1Cc1ccc(F)cc1F | 96 µM | > 100 µM
35 | C=CCCCCC/C=C\[C@H](O)C#CC#C/C=C/CO | 28.8 µM | > 100 µM
36 | COc1cc(C#CC(=O)OC/C=C/c2ccc3c(c2)OCO3)cc(OC)c1OC |  | 60.8 µM
37 | O/N=C/C1C(OCc2ccccc2)C(OCc2ccccc2)C(OCc2ccccc2)CN1Cc1ccccc1 (centres undefined) | 22 µM and 3.08 µM | 58.8 µM and > 100 µM
38 | O=C1NC(=O)C(c2cnc3ccccn23)=C1c1cn2c3c(cc(F)cc13)CN(C(=O)N1CCCCC1)CC2 | 0.0416 µM | 23.8 µM
39 | Clc1nc2ccccc2nc1CI | 3.94 µM | 8.7 µM
40 | Cn1nc(N)c2cc([C@@H]3Nc4ccc5[nH]ncc5c4[C@H]4C5CCC(C5)[C@@H]34)ccc21 (some centres undefined) | 19.6 µM | > 100 µM
41 | Cn1cc(CO)c2c1C(=O)C=C(N1CC1)C2=O | 0.0215 µM | 
42 | CCN(CC)CCCC(CNc1ccnc2cc(Cl)ccc12)c1ccc(Cl)cc1 (centres undefined) | 1.67 µM and 0.83 µM | 3.24 µM and 2.08 µM
43 | [Cl][Hg][c]1cc(Br)cc(Br)c1 | 2.9 µM | 6.35 µM
44 | COc1ccc(C(C)=O)cc1N1C(=O)C2C(C1=O)C1(c3ccccc3)C(=O)C2(c2ccccc2)C(c2ccc(C)cc2)=C1c1ccc(C)cc1 (centres undefined) | > 100 µM | > 100 µM
45 | O=C1c2cccc(NCCCNCCO)c2C(=O)c2cccc(NCCCNCCO)c21 |  | 8.6 µM and 13.4 µM
46 | CCN(CC)c1ccc2c(c1)OC(N)=C(C#N)C2c1cc(OC)c2c(c1)OCO2 (centres undefined) | 0.316 µM | 25.5 µM
47 | N#CC(=C1C=CC(=NO)C=C1)c1ccccc1 | 4.47 µM | 13.3 µM
48 | CCCCCCCCCCCCCC1=NC(C)(C)CN1C(C)C | 1.58 µM | 3 µM
49 | CC(C)=CCNc1ncnc2c1ncn2C1OC(CO)C(O)C1O (centres undefined) | 1.04 µM | 85.6 µM
